Results taken from ChEMBL document CHEMBL1201862, “PubChem BioAssay data set” (2004).
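These data come from cells grown in 96-well plates and exposed to compound for 48 hours at five concentrations. Abbreviation: GI50, concentration required for 50% inhibition of growth.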 Active and inactive are the calls of the source. No stated cut-off is given here; in the data, active = GI50 up to about 1.1 µM and inactive = higher.

Key:
Test in all cases: NCI-60 cell line screen, 48 h
[1] = system: HCT-116
[2] = system: K562
[3] = system: U-251
[4] = system: SK-MEL-28
[5] = system: SF-295
[6] = system: 786-0
[7] = system: MOLT-4
[8] = system: SK-MEL-2
[9] = system: OVCAR-3
[10] = system: SK-MEL-5
[11] = system: MDA-N
[12] = system: RPMI-8226
[13] = system: KM12
[14] = system: LOX IMVI
[15] = system: M14
[16] = system: UO-31
[17] = system: EKVX
[18] = system: COLO 205
[19] = system: OVCAR-4
[20] = system: NCI-H522

Row | Compound | GI50 [1] | GI50 [2] | GI50 [3] | GI50 [4] | GI50 [5] | GI50 [6] | GI50 [7] | GI50 [8] | GI50 [9] | GI50 [10] | GI50 [11] | GI50 [12] | GI50 [13] | GI50 [14] | GI50 [15] | GI50 [16] | GI50 [17] | GI50 [18] | GI50 [19] | GI50 [20]
1 | NC1=Nc2ncccc2C(=O)NN1 | > 10 µM (inactive) | > 10 µM (inactive) | > 10 µM (inactive) | > 10 µM (inactive) | > 10 µM (inactive) | > 10 µM (inactive) | > 10 µM (inactive) | > 10 µM (inactive) | > 10 µM (inactive) | > 10 µM (inactive) | > 10 µM (inactive) | > 10 µM (inactive) | > 10 µM (inactive) | > 10 µM (inactive) | > 10 µM (inactive) | > 10 µM (inactive) | > 10 µM (inactive) | – | – | –
2 | O=C(Cn1nc(Br)c(Br)c1Br)c1ccccc1 | 18.1 µM (inactive) | 10.8 µM (inactive) | 34 µM (inactive) | 37.2 µM (inactive) | 29.1 µM (inactive) | 23.7 µM (inactive) | 0.238 µM (active) | 20.7 µM (inactive) | 34.1 µM (inactive) | 18.1 µM (inactive) | 32.9 µM (inactive) | – | 33.4 µM (inactive) | 16.4 µM (inactive) | 26.7 µM (inactive) | 18.2 µM (inactive) | 22.5 µM (inactive) | 18.9 µM (inactive) | 36.1 µM (inactive) | 26 µM (inactive)
3 | CC(NNC(=O)c1ccncc1)c1ccc(F)cc1 (configuration not stated) | > 100 µM (inactive) | > 100 µM (inactive) | > 100 µM (inactive) | > 100 µM (inactive) | > 100 µM (inactive) | > 100 µM (inactive) | 6.65 µM (inactive) | > 100 µM (inactive) | > 100 µM (inactive) | > 100 µM (inactive) | > 100 µM (inactive) | – | > 100 µM (inactive) | > 100 µM (inactive) | 41.8 µM (inactive) | > 100 µM (inactive) | > 100 µM (inactive) | > 100 µM (inactive) | > 100 µM (inactive) | > 100 µM (inactive)
4 | CC(=O)O/C=C1/C[C@H]2[C@@H]3CCC4CC(C(C)=O)CC[C@]4(C)[C@H]3CC[C@]2(C)C1=O (some centres not stated) | 29.6 µM (inactive) | 36.4 µM (inactive) | 40.6 µM (inactive) | > 100 µM (inactive) | 49.1 µM (inactive) | 68.2 µM (inactive) | 39.1 µM (inactive) | > 100 µM (inactive) | 33.2 µM (inactive) | 47.2 µM (inactive) | 88.1 µM (inactive) | – | 33.7 µM (inactive) | 33.3 µM (inactive) | – | > 100 µM (inactive) | > 100 µM (inactive) | > 10 µM (inactive) | > 100 µM (inactive) | > 100 µM (inactive)
5 | Cc1ccc(S(=O)(=O)N[C@@H](Cc2ccccc2)C(=O)CCl)cc1 [TPCK] | 11.6 µM (inactive) | 9.75 µM (inactive) | 16.2 µM (inactive) | 18.6 µM (inactive) | 18.9 µM (inactive) | 13.9 µM (inactive) | – | 12.9 µM (inactive) | 15.8 µM (inactive) | 12.2 µM (inactive) | 14.3 µM (inactive) | – | – | 7.08 µM (inactive) | 13.4 µM (inactive) | 14.1 µM (inactive) | 17.2 µM (inactive) | 17.5 µM (inactive) | 4.93 µM (inactive) | 9.68 µM (inactive)
6 | O=C(O)C(=Cc1ccnc2ccccc12)C(=O)O | > 100 µM (inactive) | > 100 µM (inactive) | > 100 µM (inactive) | > 100 µM (inactive) | > 100 µM (inactive) | > 100 µM (inactive) | > 100 µM (inactive) | > 100 µM (inactive) | > 100 µM (inactive) | > 100 µM (inactive) | > 100 µM (inactive) | > 100 µM (inactive) | > 100 µM (inactive) | > 100 µM (inactive) | > 100 µM (inactive) | – | > 100 µM (inactive) | > 100 µM (inactive) | – | > 100 µM (inactive)
7 | CCOC(=O)CCCc1cc(O)c2c(C)c3[nH]c4ccc(Cl)cc4c3c(C)c2n1 | 34.8 µM (inactive) | 26.1 µM (inactive) | 22.9 µM (inactive) | 28.3 µM (inactive) | 28.8 µM (inactive) | 20.4 µM (inactive) | 49.8 µM (inactive) | 26.9 µM (inactive) | 17.7 µM (inactive) | 19.8 µM (inactive) | 34.9 µM (inactive) | 32.6 µM (inactive) | 37.2 µM (inactive) | 38.7 µM (inactive) | 34.9 µM (inactive) | 20.1 µM (inactive) | 79.1 µM (inactive) | 41.8 µM (inactive) | 23.7 µM (inactive) | –
8 | COc1ccc(C(Cc2ccccc2)C2NC(=S)NC2=O)cc1 (configuration not stated) | > 25 µM (inactive) | > 25 µM (inactive) | > 25 µM (inactive) | > 25 µM (inactive) | > 25 µM (inactive) | > 25 µM (inactive) | > 25 µM (inactive) | > 25 µM (inactive) | > 25 µM (inactive) | > 25 µM (inactive) | – | > 25 µM (inactive) | > 25 µM (inactive) | > 25 µM (inactive) | > 25 µM (inactive) | > 25 µM (inactive) | > 25 µM (inactive) | > 25 µM (inactive) | > 25 µM (inactive) | > 25 µM (inactive)
9 | COc1cc2cc(C(=O)N3CC(CCl)c4ccc([N+](=O)[O-])cc43)[nH]c2c(OC)c1OC (configuration not stated) | > 100 µM (inactive) | > 100 µM (inactive) | > 100 µM (inactive) | > 100 µM (inactive) | > 100 µM (inactive) | > 100 µM (inactive) | > 100 µM (inactive) | > 100 µM (inactive) | > 100 µM (inactive) | > 100 µM (inactive) | – | > 100 µM (inactive) | > 100 µM (inactive) | > 100 µM (inactive) | > 100 µM (inactive) | > 100 µM (inactive) | 30.8 µM (inactive) | > 100 µM (inactive) | 29.2 µM (inactive) | > 100 µM (inactive)
10 | C1=C(c2ccccc2)SC=C(c2ccccc2)S1 | 44.5 µM (inactive) | 21 µM (inactive) | 38.4 µM (inactive) | 49 µM (inactive) | 29.2 µM (inactive) | > 100 µM (inactive) | 25.3 µM (inactive) | – | 33.7 µM (inactive) | 19.6 µM (inactive) | 6.17 µM (inactive) | 33.3 µM (inactive) | 16.9 µM (inactive) | 36.9 µM (inactive) | 39.8 µM (inactive) | 60.5 µM (inactive) | 24.1 µM (inactive) | 30.1 µM (inactive) | 32.4 µM (inactive) | –
11 | Cn1c(=O)c2c(nc3sc4ncccc4c(=O)n32)n(C)c1=O | > 100 µM (inactive) | – | > 100 µM (inactive) | > 100 µM (inactive) | > 100 µM (inactive) | > 100 µM (inactive) | > 100 µM (inactive) | > 100 µM (inactive) | > 100 µM (inactive) | > 100 µM (inactive) | > 100 µM (inactive) | > 100 µM (inactive) | > 100 µM (inactive) | > 100 µM (inactive) | > 100 µM (inactive) | 81.1 µM (inactive) | > 100 µM (inactive) | > 100 µM (inactive) | > 100 µM (inactive) | –
12 | CN(C)c1ccc(/C=C2\N=C(c3ccccc3)N(/N=C3\C(=O)Nc4ccccc43)C2=O)cc1 | 57.3 µM (inactive) | 32 µM (inactive) | 76.6 µM (inactive) | > 100 µM (inactive) | 69.8 µM (inactive) | 52.4 µM (inactive) | 32 µM (inactive) | 37.7 µM (inactive) | 16.8 µM (inactive) | 47.8 µM (inactive) | 32.7 µM (inactive) | – | 50.9 µM (inactive) | 28.8 µM (inactive) | 91.4 µM (inactive) | 36 µM (inactive) | 27 µM (inactive) | 30.2 µM (inactive) | 32.4 µM (inactive) | 23.4 µM (inactive)
13 | CCOC(=O)c1ccc(N2C(=S)N(C(=O)c3ccccc3)C(=N/c3ccccc3)/C2=N\c2ccccc2)cc1 | – | > 100 µM (inactive) | 25.5 µM (inactive) | > 100 µM (inactive) | 65.9 µM (inactive) | 42.2 µM (inactive) | > 10 µM (inactive) | 40.6 µM (inactive) | 25.3 µM (inactive) | 50 µM (inactive) | 26.5 µM (inactive) | > 100 µM (inactive) | > 100 µM (inactive) | – | 27.2 µM (inactive) | 56.9 µM (inactive) | > 100 µM (inactive) | – | – | 51.2 µM (inactive)
14 | CC[C@@]1(C[C@H]2C[C@@]3(C(=O)OC)c4[nH]c5ccccc5c4CCN3C2=O)COC2(CCCCC2)O1 | 30 µM (inactive) | 23.6 µM (inactive) | – | – | 33.4 µM (inactive) | 39.9 µM (inactive) | 16.6 µM (inactive) | 32.2 µM (inactive) | 51.2 µM (inactive) | 13.5 µM (inactive) | 43.2 µM (inactive) | – | 19.9 µM (inactive) | 32.8 µM (inactive) | 37.8 µM (inactive) | 18.1 µM (inactive) | 61.9 µM (inactive) | 34.4 µM (inactive) | 58.2 µM (inactive) | 37.1 µM (inactive)
15 | Cn1c(-c2ccccc2)cc(-c2ccsc2)c1-c1ccsc1 | 55.5 µM (inactive) | > 100 µM (inactive) | > 100 µM (inactive) | > 100 µM (inactive) | > 100 µM (inactive) | > 100 µM (inactive) | > 100 µM (inactive) | > 100 µM (inactive) | 34.3 µM (inactive) | > 100 µM (inactive) | > 100 µM (inactive) | > 100 µM (inactive) | > 100 µM (inactive) | > 100 µM (inactive) | > 100 µM (inactive) | > 100 µM (inactive) | > 100 µM (inactive) | > 100 µM (inactive) | > 100 µM (inactive) | –
